Data from patent US20060199770A1, “Functionalized carbon nanotubes, a process for preparing the same and their use in medicinal chemistry” (priority 2003, published 2006).
Where no end group is shown, it is not given here.

Experiments:
BALB/c mice = details: mouse, in vivo; cited from earlier work
[1] = tested on: polyclonal mouse anti-FMDV peptide serum; format: binding
mAb 21×27 = format: binding, mice

Q: With “Ac-GSGVRGDFGSLAPRVARQL [FMDV 141-159 peptide]” as the substance, how does the “immunogenicity when injected alone with an adjuvant” value (BALB/c mice) read?
A: not immunogenic

Q: Which results are given for “Ac-CGSGVRGDFGSLAPRVARQL [free FMDV peptide]”?
A: recognition by polyclonal antibodies (ELISA, FIG. 5A) [1]: recognized equally well; recognition by monoclonal antibodies (ELISA, FIG. 5B) (mAb 21×27): recognized equally well
